# In patent US20230330251A1, “METHODS FOR TREATING CANCERS WITH ANTIBODY DRUG CONJUGATES (ADC) THAT BIND TO 191P4D12 PROTEINS” (AGENSYS, INC., priority 2020, published 2023):
# Non-standard residues stand in square brackets, D forms with d. Residues, ends and D or L forms follow the SMILES beside them. *: point of attachment. Dolaproine = CO[C@@H]([C@@H]1CCCN1)[C@@H](C)C(=O)O; Dil = CC[C@H](C)[C@H](NC)[C@@H](CC(=O)O)OC; X1 = C[C@@H](N*)[C@@H](O)c1ccccc1; NMeV = CN[C@H](C(=O)O)C(C)C
# What was measured:
# [1] = Phase 1 study of EV: pharmacokinetics; type: in vivo, human; conditions: EV dosing on Days 1, 8 and 15 of every 28-day cycle
# Description: Based on pharmacokinetic data from the phase 1 study, the half-life of EV is ˜1-2 days. […] Minimal (<50%) intra-cycle accumulation of MMAE was observed. It is anticipated that the dosing schedule in the study will maintain ADC exposures over each 28-day cycle, contributing to a favorable balance of activity and safety, as observed in the phase 1 trial.
# [2] = tested on: locally advanced or metastatic urothelial cancer; conditions: second line, KEYNOTE-045; cited from earlier work
# [3] = tested on: acute myeloid leukemia (AML) at relapse; conditions: administered alone; cited from earlier work
# [4] = target: PD-1 (Homo sapiens, UniProt Q15116); conditions: cited from earlier work
# PD-1, sequence (Q15116 25-288): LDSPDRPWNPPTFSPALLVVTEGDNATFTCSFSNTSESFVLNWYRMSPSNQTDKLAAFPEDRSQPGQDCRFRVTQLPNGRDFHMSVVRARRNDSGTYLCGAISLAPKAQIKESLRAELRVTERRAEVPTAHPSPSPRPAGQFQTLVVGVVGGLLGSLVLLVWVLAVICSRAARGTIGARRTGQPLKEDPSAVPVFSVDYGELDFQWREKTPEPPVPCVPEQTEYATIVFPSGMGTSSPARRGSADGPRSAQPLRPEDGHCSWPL
# [5] = tested on: subjects; conditions: cited from earlier work
# [6] = tested on: urothelial cancer; conditions: second line treatment; best supportive care 4.6 months; cited from earlier work
molecule,measurement,setting,value
"CC[C@H](C)[C@@H]([C@@H](CC(=O)N1CCC[C@H]1[C@H](OC)[C@@H](C)C(=O)N[C@H](C)[C@@H](O)c1ccccc1)OC)N(C)C(=O)[C@@H](NC(=O)[C@@H](NC)C(C)C)C(C)C [MMAE, monomethyl auristatin E, reference compound] (H-[NMeV]V[Dil][Dolaproine]-X1)",intra-cycle accumulation of MMAE,[1],< 50%
pembrolizumab: humanized monoclonal IgG4 anti-PD-1 antibody,Median OS,[2],10.3 months
"CT-011: anti-PD-1 antibody, a humanized antibody",response in acute myeloid leukemia (AML) at relapse,[3],failed to show response
BGB-A317: anti-PD-1 monoclonal antibody in which the ability to bind Fc gamma receptor I is engineered out,binding to PD-1,[4],high affinity
"CC[C@]12C=CCN3CC[C@@]4(c5cc([C@@]6(C(=O)OC)C[C@@H]7C[C@@H](C(C)(F)F)CN(Cc8c6[nH]c6ccccc86)C7)c(OC)cc5N(C)[C@H]4[C@@](O)(C(=O)OC)[C@@H]1OC(C)=O)[C@@H]32 [Vinflunine, vinflunine]",Cases of Posterior Reversible Encephalopathy Syndrome (PRES),[5]; after administration of vinflunine,have been observed
same,Median OS,[6],6.9 months
"CC(=O)O[C@@]12CO[C@@H]1C[C@H](O)[C@@]1(C)C(=O)[C@H](O)C3=C(C)[C@@H](OC(=O)[C@H](O)[C@@H](NC(=O)OC(C)(C)C)c4ccccc4)C[C@@](O)([C@@H](OC(=O)c4ccccc4)[C@H]21)C3(C)C [Docetaxel, docetaxel]",fluid retention following docetaxel therapy,[5]; in vivo,Severe fluid retention has been reported
